The conditions of data set [1]: Adiabatic calorimetry.
The nature of data set [2]: Molar enthalpy of transition or fusion. The following applies: Adiabatic calorimetry.

This note sets out measurements from the NIST ThermoML archive (doi:10.1016/j.tca.2004.12.015).

± gives the expanded uncertainty stated by the source.

On to `N#CCCNc1ccccc1` [3-anilinopropanenitrile], for which the Triple point temperature was found to be 323.5 ± 0.1 K in data set [1] (Crystal 1) and 310.63 ± 0.05 K in data set [1] (Crystal 2). In addition, the “Molar enthalpy of transition or fusion” value in data set [2] (Crystal 1) worked out at 0.2342 ± 0.0012 kcal/mol; in data set [2] (Crystal 2) it was 4.6367 ± 0.0012 kcal/mol.
